Source: PMC6573034 (Nature Communications, 2019)
Entries after “also recorded” stand apart in the source; their conditions may differ. Like-named read-outs stand apart in the source and are kept apart here.

Tests used:
SfMCT-F335A = target: T1, SfMCT-F335A (Syntrophobacter fumaroxidans, UniProt A0LNN5, F335A); test: [14C]L-lactate transport competition assay, SfMCT-F335A; type: cell-based; settings: competition by 1 mM ACAC
T1 construct: expressed in transfected cells; host or cells: E. coli JA202, pEXT20-SfMCT-3C-10His mutant plasmid
Method: (§1) The cultures were grown at 37 °C and 180 r.p.m. in an incubator shaker (Multitron, Infors HT). Protein expression was induced at OD600 ~0.5 by addition of IPTG to a final concentration of 0.25 mM. After 4 h, bacteria were pelleted (5,200 × g, 10 min, room temperature) and resuspended in uptake buffer (20 mM Bis-Tris propane-HCl (pH 6.7), 250 mM KCl) to a bacteria density of OD600 12. […] Furthermore, [3-3 H] propionic acid sodium salt ([^3H]propionate, American Radiolabeled Chemicals, specific activity 30 Ci/mmol), n-[2,3-3 H] butyric acid sodium salt ([^3H]butyrate, American Radiolabeled Chemicals, specific activity 120 Ci/mmol), and [1–14 C] pyruvic acid sodium salt ([^14C]pyruvate, specific activity 0.055 Ci/mmol American Radiolabeled Chemicals) were also used for transport experiments. […] Cpm values of each experiment were normalized with respect to the determined upper plateau value, i.e., the fitted upper plateau value corresponds to 100%. The arithmetic average of three independent experiments was calculated. […] His-tagged transporters were detected using an anti-His5 (Qiagen, catalogue number 34660, primary antibody) at a dilution of 1:3,000 and a goat anti-mouse IgG (H + L) HRP conjugate antibody (Biorad, catalogue number 172-1011, secondary antibody) at a dilution of 1:2,500.

SfMCT [1] = target: T2, SfMCT (Syntrophobacter fumaroxidans, UniProt A0LNN5); type: cell-based; settings: for Relative uptake of [14C]L-lactate (in %): WT SfMCT, competitor 1 mM final concentration, normalized to control without competitor
T2 construct: expressed in transfected cells; host or cells: E. coli JA202 (MC4100 glcA::cat lldP::kan), plasmid pEXT20-SfMCT-3C-10His
T2 sequence (A0LNN5 1-412): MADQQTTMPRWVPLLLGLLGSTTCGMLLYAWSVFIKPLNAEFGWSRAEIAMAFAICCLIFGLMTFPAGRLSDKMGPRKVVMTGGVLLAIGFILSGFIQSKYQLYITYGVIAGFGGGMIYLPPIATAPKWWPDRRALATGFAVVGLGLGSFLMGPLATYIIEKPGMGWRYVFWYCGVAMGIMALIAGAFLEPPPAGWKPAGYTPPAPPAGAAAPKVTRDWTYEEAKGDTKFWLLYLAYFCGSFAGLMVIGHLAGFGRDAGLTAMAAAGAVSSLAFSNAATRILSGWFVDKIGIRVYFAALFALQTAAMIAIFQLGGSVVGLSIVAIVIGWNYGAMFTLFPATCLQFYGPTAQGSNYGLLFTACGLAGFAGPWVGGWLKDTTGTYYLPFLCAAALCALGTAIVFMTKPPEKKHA
Method: The cultures were grown at 37 °C and 180 r.p.m. in an incubator shaker (Multitron, Infors HT). Protein expression was induced at OD600 ~0.5 by addition of IPTG to a final concentration of 0.25 mM. After 4 h, bacteria were pelleted (5,200 × g, 10 min, room temperature) and resuspended in uptake buffer (20 mM Bis-Tris propane-HCl (pH 6.7), 250 mM KCl) to a bacteria density of OD600 12. […] Furthermore, [3-3 H] propionic acid sodium salt ([^3H]propionate, American Radiolabeled Chemicals, specific activity 30 Ci/mmol), n-[2,3-3 H] butyric acid sodium salt ([^3H]butyrate, American Radiolabeled Chemicals, specific activity 120 Ci/mmol), and [1–14 C] pyruvic acid sodium salt ([^14C]pyruvate, specific activity 0.055 Ci/mmol American Radiolabeled Chemicals) were also used for transport experiments. […] Uptake experiments were performed in 2 ml reaction tubes (Eppendorf) at 30 °C under agitation (1,000 r.p.m., Thermomixer compact, Eppendorf). […] Bacteria were immediately pelleted by centrifugation (21,000 × g, 4 min, room temperature) and washed two times with 900 μl stop buffer. Finally, bacteria were lyzed in 50 μl 5% (w/v) sodium dodecylsulfate and transferred into a white 96-well plate (Optiplate, PerkinElmer). 150 µl of scintillation cocktail (MicroScint 40, PerkinElmer) were added before measuring each reaction for 2 min with a scintillation counter (TopCount NXT, PerkinElmer). For data analysis, the signal of the empty vector was subtracted from the transporter signal. […] Cpm values of each experiment were normalized with respect to the determined upper plateau value, i.e., the fitted upper plateau value corresponds to 100%. The arithmetic average of three independent experiments was calculated. Three independent and normalized pH-dependence curves were then averaged. For data analysis Prism6 (GraphPad Software) was used. […] Equal amounts of bacteria expressing SfMCT variants were loaded on 14% SDS/polyacrylamide gels. His-tagged transporters were detected using an anti-His5 (Qiagen, catalogue number 34660, primary antibody) at a dilution of 1:3,000 and a goat anti-mouse IgG (H + L) HRP conjugate antibody (Biorad, catalogue number 172-1011, secondary antibody) at a dilution of 1:2,500.

Y331F SfMCT = target: T3, Y331F SfMCT (Syntrophobacter fumaroxidans, UniProt A0LNN5, Y331F); test: [14C]L-lactate transport competition assay, Y331F SfMCT; type: cell-based; settings: competition of [14C]L-lactate uptake
T3 construct: expressed in transfected cells; host or cells: E. coli JA202, pEXT20-SfMCT-3C-10His mutant plasmid
Method: as §1

SfMCT [2] = target: T2, SfMCT; test: Micro pH electrode-based transport assay, SfMCT-expressing E. coli JA202; type: cell-based; settings: 10 mM compound (pH 6.5) added to bacterial suspension pH 6.7
Method: A measuring set up as previously reported[18] was used for micro pH electrode-based transport measurements. SfMCT was expressed in E. coli JA202 (MC4100 glcA::cat lldP::kan)[15] as described for uptake experiments. After expression, bacteria were pelleted (5,200 × g, 10 min, room temperature), washed twice in assay solution (250 mM KCl, 1 mM MgSO4, 2 mM CaCl2; 5,200 × g, 10 min, room temperature) and finally resuspended in assay solution to a bacterial density of OD600 15. Compounds that were assayed for proton-coupled transport were dissolved in assay solution and the pH was adjusted to 6.5. 800 µl of bacteria suspension were transferred into a 2 ml reaction tube (Eppendorf) and the pH value of the bacterial suspension (extracellular medium) was measured using a micro pH electrode with integrated temperature sensor (InLab Micro Pro, Mettler Toledo) under constant stirring. The pH of the bacterial suspension was adjusted to pH 6.7 using potassium hydroxide and hydrochloric acid. The SevenCompact pH-meter (Mettler Toledo), together with LabX direct pH 2.3 software (Mettler Toledo), were used for automatic recording in 15 s intervals. Measurements were initiated by adding 10 mM of the corresponding compound to the bacterial suspension. All experiments were performed at 24 °C.

MCT1 = target: MCT1; parameters: method as in Ovens et al., 2010, Biochem. J. 425:523-30; settings: reported value, ref Ovens et al., 2010, Biochem. J. 425:523-30; cited from earlier work
[3] = substrate: C[C@H](O)C(=O)O; test: cells, lysate or membranes; type: cell-based, Syntrophobacter fumaroxidans; settings: other: SfMCT-mediated [14C]L-lactate uptake; average of three independent saturation experiments

T1 sequence (A0LNN5 whole entry F335A): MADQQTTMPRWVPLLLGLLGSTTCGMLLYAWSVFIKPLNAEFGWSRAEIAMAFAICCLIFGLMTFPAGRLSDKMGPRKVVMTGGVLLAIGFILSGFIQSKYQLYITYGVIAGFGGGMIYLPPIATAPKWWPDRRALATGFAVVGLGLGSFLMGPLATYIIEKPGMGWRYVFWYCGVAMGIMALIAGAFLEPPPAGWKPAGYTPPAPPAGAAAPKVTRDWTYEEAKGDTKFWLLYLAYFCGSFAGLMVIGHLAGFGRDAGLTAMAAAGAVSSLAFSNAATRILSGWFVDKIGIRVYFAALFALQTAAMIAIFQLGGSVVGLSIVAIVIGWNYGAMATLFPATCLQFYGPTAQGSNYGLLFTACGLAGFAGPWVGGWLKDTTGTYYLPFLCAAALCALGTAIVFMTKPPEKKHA
T3 sequence (A0LNN5 whole entry Y331F): as the sequence (A0LNN5 whole entry F335A) above, with Y331F, A335F counted along it

For `CC(=O)CC(=O)O` [ACAC, acetoacetate], the “Relative uptake of [14C]L-lactate (in %)” value (SfMCT-F335A) was 43.19%, the “Relative uptake of [14C]L-lactate (in %)” value (SfMCT-F335A; listed as acetoacetate) was 43% and the “Relative uptake of [14C]L-lactate (in %)” value (SfMCT [1]) was 86.3974%. The “Relative uptake of [14C]L-lactate (in %)” value (SfMCT [1]; listed as acetoacetate) was 86% and the “reduction of [14C]L-lactate uptake” value (SfMCT [1]; competitor 1 mM) was 5–14%.

In the case of `O=C(O)c1ccccc1S` [TSA, thiosalicylate], the Ki (Y331F SfMCT) is reported as 1380 µM, the Ki (SfMCT [1]; wild-type (WT) SfMCT, competition of [14C]L-lactate uptake) is reported as 120 µM and the “proton-coupled transport, change of extracellular pH (in words)” value (SfMCT [2]) is reported as “not a substrate; also recorded: not transported”.

For `Cc1n[nH]c(C)c1Cc1sc2c(c1C(=O)N1C[C@H](O)CO1)c(=O)n(C)c(=O)n2CC(C)C` [AR-C155858, reference compound], the Ki (MCT1) is given as about 0.002 µM and the “[14C]L-lactate uptake” value (SfMCT [1]; 100 µM AR-C155858, control: 100%) is given as 103%.

B1: SfMCT (Syntrophobacter fumaroxidans MPOB) (protein)
chain: MADQQTTMPRWVPLLLGLLGSTTCGMLLYAWSVFIKPLNAEFGWSRAEIAMAFAICCLIFGLMTFPAGRLSDKMGPRKVVMTGGVLLAIGFILSGFIQSKYQLYITYGVIAGFGGGMIYLPPIATAPKWWPDRRALATGFAVVGLGLGSFLMGPLATYIIEKPGMGWRYVFWYCGVAMGIMALIAGAFLEPPPAGWKPAGYTPPAPPAGAAAPKVTRDWTYEEAKGDTKFWLLYLAYFCGSFAGLMVIGHLAGFGRDAGLTAMAAAGAVSSLAFSNAATRILSGWFVDKIGIRVYFAALFALQTAAMIAIFQLGGSVVGLSIVAIVIGWNYGAMFTLFPATCLQFYGPTAQGSNYGLLFTACGLAGFAGPWVGGWLKDTTGTYYLPFLCAAALCALGTAIVFMTKPPEKKHA
notes: expressed in transfected cells; host or cells: E. coli JA202 (MC4100 glcA::cat lldP::kan), plasmid pEXT20-SfMCT-3C-10His
For B1, the Km [3] was 233 ± 22 µM.
